Consider one compound from patent US20100227895A1, “METHOD FOR TREATING EQUINE LAMINITIS” (MPCO- THE MAGIC POWDER COMPANY, priority 2009, published 2010).

One assay concerns equine laminitis. Nature of the assay: Oral treatment of horses with laminitis (case examples). Type of assay: in vivo, horse. On the procedure: The preferred form of practicing the present method will now be described for a horse weighing approximately 500 kg. In practicing the present method, the four main ingredients that are administered to prevent, treat and/or cure laminitis are: choline bitartrate, L-tyrosine, Niacin, and d-Calcium Pantothenate. These ingredients may be administered in corresponding approximate ratios of 40:41:8:16 (by weight). In the preferred embodiment, an approximately 35 day supply of the treatment includes 80 grams of choline bitartrate, 82 grams of L-tyrosine, 16 grams of niacin, and 32 grams of d-calcium pantothenate. Each dose for oral administration contains approximately 1127.5 mg of choline bitartrate, 1155.6 mg of L-tyrosine, 225.5 mg of niacin, and 451.1 mg of d-Calcium pantothenate. Preferably, this dosage is administered twice per day to an affected horse.
A quarter-horse mare first experienced laminitis at age 5 after exposure to septic waste from a failing septic field. This first bout with laminitis lasted roughly two years. At age 9, the mare was left on a heavily grazed pasture for one day and developed laminitis, the second onset of the disease during its life, presumably from exposure to fructans in grass. Transportation of the mare exacerbated the laminitis symptoms. The mare recovered gradually, but spent a lot of time lying down. […]

The target in assay [1] is tyrosine hydroxylase (TH) (Homo sapiens, UniProt P07101). Conditions: concentration of T at which the reaction proceeds at 50% of the maximal rate; cited from earlier work.
Sequence of tyrosine hydroxylase (TH) (P07101 whole entry): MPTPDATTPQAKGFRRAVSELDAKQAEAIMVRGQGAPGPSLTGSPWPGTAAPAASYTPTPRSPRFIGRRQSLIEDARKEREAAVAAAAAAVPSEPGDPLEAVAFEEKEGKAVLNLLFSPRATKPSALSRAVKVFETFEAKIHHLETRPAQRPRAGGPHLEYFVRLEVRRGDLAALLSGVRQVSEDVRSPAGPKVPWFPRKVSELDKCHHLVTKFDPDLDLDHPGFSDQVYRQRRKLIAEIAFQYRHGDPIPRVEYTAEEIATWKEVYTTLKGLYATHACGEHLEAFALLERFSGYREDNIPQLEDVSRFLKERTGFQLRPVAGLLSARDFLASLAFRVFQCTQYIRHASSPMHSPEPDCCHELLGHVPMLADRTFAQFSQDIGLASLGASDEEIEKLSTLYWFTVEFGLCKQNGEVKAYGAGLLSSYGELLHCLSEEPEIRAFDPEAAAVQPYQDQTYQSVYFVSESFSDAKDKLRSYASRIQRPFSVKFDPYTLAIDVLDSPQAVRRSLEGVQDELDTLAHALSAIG
The subject of another assay is NE synthesis. Conditions: analogous to the KM of the overall reaction; read-out: concentration of tyrosine at the half-maximal rate of NE synthesis; cited from earlier work.

Molecules are shown by their SMILES.

Consider `N[C@@H](Cc1ccc(O)cc1)C(=O)O` [tyrosine, 4-hydroxyphenylalanine], for which, in the assay with equine laminitis (Example 1, quarter-horse mare, second onset of laminitis, initial dosing, daily for nearly 90 days), the “condition of the mare with laminitis” value was “improved the condition”. For the same compound, the recurrence of laminitis result with equine laminitis (Example 2, ten year-old mare, recommended dosage after the bout) is “did not re-experience laminitis”. In assay [1], the Michaelis-Menten constant (Km) is about 25 µM. Moreover, in the assay with NE synthesis, the EC50 was 10 to 40 µM.

Usually Km stands for the substrate concentration at which the rate is half of its maximum.
